The term Kd denotes the free concentration of one partner at which half of the binding sites on the other are occupied at equilibrium, for simple one-to-one binding. A low value points to tighter binding.

This is an account of results in publication PMC10179460, “Computational and Enzymatic Studies of Sartans in SARS-CoV-2 Spike RBD-ACE2 Binding: The Role of Tetrazole and Perspectives as Antihypertensive and COVID-19 Therapeutics” (International Journal of Molecular Sciences, 2023).

The target in this experiment is T1, ACE2 (angiotensin-converting enzyme 2) (Homo sapiens, UniProt Q9BYF1).
T1 construct: recombinant human ACE2, His-tag and Strep-tag, from Sf9 insect cells
T1 sequence (Q9BYF1 18-805): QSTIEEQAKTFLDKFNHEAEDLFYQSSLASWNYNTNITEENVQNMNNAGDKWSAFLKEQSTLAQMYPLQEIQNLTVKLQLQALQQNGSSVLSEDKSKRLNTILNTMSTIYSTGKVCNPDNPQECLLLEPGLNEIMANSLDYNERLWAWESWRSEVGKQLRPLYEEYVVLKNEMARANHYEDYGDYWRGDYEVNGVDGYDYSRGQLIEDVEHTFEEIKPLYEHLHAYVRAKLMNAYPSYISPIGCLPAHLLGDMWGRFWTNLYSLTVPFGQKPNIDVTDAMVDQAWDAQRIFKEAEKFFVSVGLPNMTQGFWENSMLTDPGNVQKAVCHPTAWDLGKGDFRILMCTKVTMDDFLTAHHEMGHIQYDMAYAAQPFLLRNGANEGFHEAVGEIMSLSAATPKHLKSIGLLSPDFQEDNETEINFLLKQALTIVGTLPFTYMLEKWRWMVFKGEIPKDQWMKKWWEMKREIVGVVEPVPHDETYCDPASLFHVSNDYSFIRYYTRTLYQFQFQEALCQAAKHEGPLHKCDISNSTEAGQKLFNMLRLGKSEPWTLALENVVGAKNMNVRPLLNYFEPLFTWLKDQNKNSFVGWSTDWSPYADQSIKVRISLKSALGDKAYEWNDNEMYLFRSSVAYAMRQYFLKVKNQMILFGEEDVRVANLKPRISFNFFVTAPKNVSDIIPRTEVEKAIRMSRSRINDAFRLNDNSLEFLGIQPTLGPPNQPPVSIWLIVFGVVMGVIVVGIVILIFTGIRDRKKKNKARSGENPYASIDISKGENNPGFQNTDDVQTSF
Briefly: SPR (Biacore T200, immobilized ACE2, […] kinetic model). In kind it is binding.

Molecule `CCCCc1nc(Cl)c(CO)n1Cc1ccc(-c2ccccc2-c2nn[nH]n2)cc1` [losartan] gave a Kd of 13.7 nM.
